Results from US8524755B2 (priority 2009, dated 2013).

Key:
AMPA = assay: Binding AMPA (ag); design: species or system rat
Description: (§1) Radioligand binding assay methods utilized to measure the activity of compounds of the invention will be familiar to those skilled in the art. In each assay case, the assay components such as, for example, the cell-type, ligand, reference compound and the like, will be familiar to practitioners of such an assay.
(§2) Analysis and Expression of Results: Compounds of the invention were tested in the biochemical assays and percent inhibition of specific binding was determined. The specific ligand binding to the receptors is defined as the difference between the total binding and the nonspecific binding determined in the presence of an excess of unlabelled ligand. The results are expressed as a percent inhibition of control specific binding (100−((measured specific binding/control specific binding)×100)) obtained in the presence of test compounds.

Cannabinoid CB2 (h) = target: T1, Cannabinoid CB2 (h) (Homo sapiens, UniProt P34972); assay: Binding CB2 (h) (ag); settings: read-out: % Inhibition of Control Specific Binding @ 10 μM
T1 construct: expressed in transfected cells; host or cells: CHO cells
T1 sequence (P34972 whole entry): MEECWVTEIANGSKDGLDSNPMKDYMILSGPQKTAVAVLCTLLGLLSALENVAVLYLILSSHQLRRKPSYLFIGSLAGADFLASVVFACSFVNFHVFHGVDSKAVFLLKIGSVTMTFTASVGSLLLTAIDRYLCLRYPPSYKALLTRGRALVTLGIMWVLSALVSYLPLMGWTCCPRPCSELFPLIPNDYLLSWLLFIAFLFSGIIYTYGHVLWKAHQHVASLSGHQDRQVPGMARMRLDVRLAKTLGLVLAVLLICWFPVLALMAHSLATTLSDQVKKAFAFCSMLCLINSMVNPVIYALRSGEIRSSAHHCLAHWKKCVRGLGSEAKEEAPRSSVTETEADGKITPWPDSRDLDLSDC
Description: as §1, §2

[1] = tested on: Ca^2+ channel (L, verapamil site) (phenylalkylamine); assay: Binding Ca2+ channel (L, verapamil site) (aa); design: species or system rat
Description: as §1, §2

P2X = assay: Binding P2X (ag); design: species or system rat
Description: as §1, §2

KATP channel = assay: Binding KATP channel (aa); design: species or system rat
Description: as §1, §2

Neurokinin NK2 (h) = target: T2, Neurokinin NK2 (h) (Homo sapiens, UniProt P21452); assay: Binding NK2 (h) (ag); settings: read-out: % Inhibition of Control Specific Binding @ 10 μM
T2 construct: expressed in transfected cells; host or cells: CHO cells
T2 sequence (P21452 1-398): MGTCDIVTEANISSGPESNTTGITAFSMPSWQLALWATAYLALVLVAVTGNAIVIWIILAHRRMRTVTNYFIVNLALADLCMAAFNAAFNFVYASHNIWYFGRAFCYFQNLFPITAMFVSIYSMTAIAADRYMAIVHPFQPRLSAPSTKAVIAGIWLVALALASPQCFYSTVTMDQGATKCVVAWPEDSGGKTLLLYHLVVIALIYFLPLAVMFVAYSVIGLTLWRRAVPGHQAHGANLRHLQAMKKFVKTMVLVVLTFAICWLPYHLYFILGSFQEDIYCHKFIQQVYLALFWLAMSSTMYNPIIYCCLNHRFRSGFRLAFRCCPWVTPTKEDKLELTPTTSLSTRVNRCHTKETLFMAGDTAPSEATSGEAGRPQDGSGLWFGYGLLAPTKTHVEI
Description: as §1, §2

PDE5 (h) (ns) = assay: Enzyme assay PDE5 (h) (ns); type: biochemical, human
Excerpt: The enzyme assays provided below will be familiar to those skilled in the art.
Analysis and Expression of Results: The results are expressed as a percent of control specific activity ((measured specific activity/control specific activity)×100) obtained in the presence of the test compounds.

KV channel = assay: Binding KV channel (aa); design: species or system rat
Description: as §1, §2

Angiotensin AT1 (h) = target: T3, Angiotensin AT1 (h) (Homo sapiens, UniProt P30556); assay: Binding AT1 (h) (aa); settings: read-out: % Inhibition of Control Specific Binding @ 10 μM
T3 construct: expressed in transfected cells; host or cells: HEK-293 cells
T3 sequence (P30556 1-359): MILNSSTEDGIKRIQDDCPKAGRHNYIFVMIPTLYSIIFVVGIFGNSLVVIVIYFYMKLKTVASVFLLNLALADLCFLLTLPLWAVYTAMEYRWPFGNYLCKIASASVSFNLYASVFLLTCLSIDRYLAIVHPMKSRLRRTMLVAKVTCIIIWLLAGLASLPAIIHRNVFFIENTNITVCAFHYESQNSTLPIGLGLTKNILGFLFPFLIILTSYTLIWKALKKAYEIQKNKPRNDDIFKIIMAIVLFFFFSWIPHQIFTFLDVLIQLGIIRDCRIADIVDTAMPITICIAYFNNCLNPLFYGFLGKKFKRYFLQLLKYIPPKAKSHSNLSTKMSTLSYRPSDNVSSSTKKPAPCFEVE
Description: as §1, §2

Muscarinic M (ns) = assay: Binding M (ns) (aa); design: species or system rat
Description: as §1, §2

[2] = [14C]RD162′ radio-HPLC metabolite profile in Pooled Rat Plasma; type: in vivo, Sprague Dawley rats; settings: [14C]RD162′ 100 mg/kg/day oral, day 7, 4 h
Description: The rats were dosed once a day for seven consecutive days; four hours after dosing on the seventh day, plasma was collected from all three rats. The plasma samples were stored at approximately −70° C. or colder.
Positive ion electrospray LC/MS and LC/MS/MS were used to analyze the metabolites.
To prepare the Pooled Rat Plasma for HPLC analysis, approximately 1 g of the plasma sample was combined with acetonitrile (ACN, sample:ACN, 1:3, v:v), vortex mixed, sonicated in cold water, centrifuged, and the supernatants were removed. The extraction was repeated twice and the respective supernatants were combined. […] The combined supernatants were evaporated to dryness and reconstituted in 1 mL of 0.1% formic acid in reverse osmosis (RO) water:ACN: methanol (MeOH, 50:45:5, v:v:v). […] The reconstituted sample was analyzed by HPLC to determine the metabolite profile with fractions collected at 10-second intervals and analyzed by solid scintillation counting.
The prepared samples were analyzed using the following LC/MS/MS conditions: HPLC: Hewlett Packard 1100 series; Mobile Phase: 0.1% formic acid in reverse osmosis water (A) and acetonitrile (B); Column: Agilent Eclipse XDB-C18, 4.6×150 mm, 5 μm; Guard column: Phenomenex Security Guard Cartridge C18, 3×4 mm; Column temperature: 20° C.; Gradient: 20-80% B in 40 min; Flow Rate: 1.5 mL/min.

[3] = target: T4, Cholecystokinin CCK1 (CCKA) (h) (Homo sapiens, UniProt P32238); assay: Binding CCK1 (CCKA) (h) (ag); settings: read-out: % Inhibition of Control Specific Binding @ 10 μM
T4 construct: expressed in transfected cells; host or cells: CHO cells
T4 sequence (P32238 1-428): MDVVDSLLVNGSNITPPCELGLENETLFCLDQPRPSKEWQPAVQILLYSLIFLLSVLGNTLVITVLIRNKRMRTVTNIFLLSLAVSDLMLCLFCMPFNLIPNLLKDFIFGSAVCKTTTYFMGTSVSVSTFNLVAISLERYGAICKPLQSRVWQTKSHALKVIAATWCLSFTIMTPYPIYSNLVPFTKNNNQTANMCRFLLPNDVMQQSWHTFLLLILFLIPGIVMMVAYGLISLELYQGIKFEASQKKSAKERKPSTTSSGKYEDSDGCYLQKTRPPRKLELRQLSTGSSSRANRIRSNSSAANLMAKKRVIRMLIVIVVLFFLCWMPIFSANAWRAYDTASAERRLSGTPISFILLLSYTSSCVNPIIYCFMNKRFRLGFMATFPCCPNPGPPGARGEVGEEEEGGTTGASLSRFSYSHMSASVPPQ
Description: as §1, §2

Row | Structure (SMILES) | % Inhibition of Control Specific Binding @ 10 μM (AMPA) | inhibition at 10 µM (Cannabinoid CB2 (h)) | % Inhibition of Control Specific Binding @ 10 μM [1] | % Inhibition of Control Specific Binding @ 10 μM (P2X) | % Inhibition of Control Specific Binding @ 10 μM (KATP channel) | inhibition at 10 µM (Neurokinin NK2 (h)) | % Inhibition of Control Values @ 10 μM (PDE5 (h) (ns)) | % Inhibition of Control Specific Binding @ 10 μM (KV channel) | inhibition at 10 µM (Angiotensin AT1 (h)) | % Inhibition of Control Specific Binding @ 10 μM (Muscarinic M (ns)) | % Injected Radioactivity (%) [2] | % Recovered Radioactivity (%) [2] | Peak Area (mV) [2] | Peak Height (mV) [2] | inhibition at 10 µM [3]
1 | CNC(=O)c1ccc(N2C(=O)N(c3ccc(C#N)c(C(F)(F)F)c3)C(=O)C2(C)C)cc1F [(MIV), 4-(3-(4-cyano-3-(trifluoromethyl)phenyl)-5,5-dimethyl-2,4-dioxoimidazolidin-1-yl)-2-fluoro-N-methylbenzamide] | −4% | 1% | −5% | 2% | 7% | 2% | 2% | −4% | 0% | 25% | 8.45% | 13.27% | 452 mV | 63 mV | 25%
2 | CC1(C)C(=O)N(c2ccc(C#N)c(C(F)(F)F)c2)C(=S)N1c1ccc(C(=O)O)c(F)c1 [(MI), 4-(3-(4-cyano-3-(trifluoromethyl)phenyl)-5,5-dimethyl-4-oxo-2-thioxoimidazolidin-1-yl)-2-fluorobenzoic acid] | 1% | -2% | −2% | 4% | 17% | -6% | 4% | −2% | 11% | 18% | 11.02% | 17.31% | 589 mV | 86 mV | 47%
3 | CC1(C)C(=O)N(c2ccc(C#N)c(C(F)(F)F)c2)C(=O)N1c1ccc(C(N)=O)c(F)c1 [(MIII), 4-(3-(4-cyano-3-(trifluoromethyl)phenyl)-5,5-dimethyl-2,4-dioxoimidazolidin-1-yl)-2-fluorobenzamide] | −2% | -3% | −1% | 2% | 7% | 0% | 8% | −2% | 6% | 20% | 7.96% | 12.50% | 426 mV | 77 mV | -14%
4 | CC1(C)C(=O)N(c2ccc(C#N)c(C(F)(F)F)c2)C(=S)N1c1ccc(C(N)=O)c(F)c1 [(MII), 4-(3-(4-Cyano-3-(trifluoromethyl)phenyl)-5,5-dimethyl-4-oxo-2-thioxoimidazolidin-1-yl)-2-fluorobenzamide] | −10% | 1% | −13% | 4% | 24% | -3% | −1% | −3% | 0% | 1% | 5.38% | 8.45% | 288 mV | 43 mV | 0%
